Read-outs that look alike come from different tables or passages of the source.
Assays:
[1] = system: human breast carcinoma cell line MCF-7; test: MTT antiproliferative assay against MCF-7; assay type: cell-based; conditions: read-out: IC50 (anticancer activity against MCF-7 cell line)
Protocol: All the synthesised naphthalene-chalcone derivatives 3a–3t were evaluated for their anticancer activity by 3-[4,5-dimethylthiazole-2-yl]-2,5-diphenyltetrazolium bromide (MTT) assay method against human breast carcinoma cell line MCF-7. Cisplatin was used as a reference drug. […]. […]
culture, the culture medium was removed, and cells were incubated with tetrazolium dye [3-(4,5-dimethylthiazol-2-yl)-2,5-diphenyltetrazo-lium bromide (MTT) solution for 4 h. Then, the supernatant was removed and the precipitates (formazan crystal) were […]
dissolved in DMSO. […]

MCF-7 cells [2] = test: Cell cycle analysis by flow cytometry (PI); assay type: cell-based, human; conditions: 2.0 µM, 24 h
Description: Many studies have reported that tubulin polymerisation inhibitors can arrest cancer cells in G2/M phase and lead to apoptosis[24]^,[25]. The potent tubulin polymerisation inhibitory activity of compound 3a promoted us to further investigate its cellular mechanisms of action in MCF-7 cancer cells by using flow cytometry analysis. In order to elucidate the molecular mechanism of compound 3a, we first studied its effect on cell cycle progression in MCF-7 cells. […] In contrast, after treatment of MCF-7 cells with compound 3a at concentrations of 2.0 µM, the accumulation of cancer cells was detected at G2/M phase by 5.5 folds compared to the control group, from 15.19% in the control group to 84.55% in the compound 3a treated group (Figure 4). […]
MCF-7 cells were seeded in 6-well plates and incubated at 37 °C for overnight and treatment with DMSO or compound 3a (0.5, 2.0 and 10.0 μM) for 24 h. The cells were washed twice with PBS, and incubated for 0.5 h at 37 °C in a PBS solution containing 1 mg/mL RNase A and propidium iodide (PI). C ell cycle was analyzed by flow cytometry (TASC240, USA).

in vitro = conditions: human
tubulin = test: In vitro tubulin polymerisation inhibitory assay; assay type: biochemical
Protocol: 1.3 In vitro tubulin polymerization assay
To evaluate the eﬀect of the compound 3a on tubulin assembly in vitro, varying
DMSO were incubated with purified tubulin protein in PEM buffer [100 mM PIPES
(1,4-Piperazinediethanesulfonic acid), 1 mM MgCl2, and 1 mM EGTA(ethylene glycol
tetraacetic acid)] containing 1 mM GTP and 5 % glycerol. […]

MCF-7 cells [3] = test: Annexin V FITC/PI apoptosis assay; assay type: cell-based, human; conditions: 2.0 µM, 24 h
Protocol: To investigate whether compound 3a could induces apoptosis, the apoptotic effect of compound 3a and DMSO (control) were evaluated by an annexin V FITC/PI (AV/PI) dual staining assay. After treatment MCF-7 cells with compound 3a at the concentration of 2.0 µM for 24 h, the cells were labelled with the two dyes and analysed by flow cytometry. […] In addition, an increase in the early/primary apoptosis was also observed from 1.85% to 20.0% (Figure 4).
MCF-7 cells were grown in 6-well plates and treated with compound 3a (0.5, 2.0 and
10.0 μM) or DMSO for 24 h. After treatment, the cells were collected and stained with
PI (propidium iodide) for 20 min. Apoptosis was analyzed using a flow cytometer. […]

SW620 colon cancer cells = system: SW620 colon cancer cells; set-up: method as in PMID 25193463; conditions: cited from earlier work
xenografted tumour = system: xenografted tumour; set-up: method as in PMID 24308485; conditions: cited from earlier work

Row | SMILES | IC50 ([1]; Homo sapiens, MCF7, 48 h) | melting point | further results
1 | COc1ccc(/C=C/C(=O)c2c(OC)ccc3ccccc23)cc1[N+](=O)[O-] [3i] | 7.82 ± 0.35 µM | 157 to 159 °C | 
2 | COc1cccc(/C=C/C(=O)c2c(OC)ccc3ccccc23)c1 [3h] | 6.67 ± 0.25 µM | 109 to 110 °C | 
3 | COc1ccc2ccccc2c1C(=O)/C=C/c1ccccc1Br [3d] | 7.63 ± 0.45 µM | 150 to 152 °C | 
4 | COc1ccc2ccccc2c1C(=O)/C=C/c1ccc(Br)cc1 [3b] | 4.1 ± 0.25 µM | 127 to 129 °C | 
5 | COc1ccc2ccccc2c1C(=O)/C=C/c1cccc(F)c1 [3o] | 7.11 ± 0.47 µM | 142 to 143 °C | 
6 | COc1ccc2ccccc2c1C(=O)/C=C/c1cccc2ccccc12 [3e] | 7.13 ± 0.33 µM | 162 to 163 °C | 
7 | COc1ccc(/C=C/C(=O)c2c(OC)ccc3ccccc23)cc1O [3a] | 1.42 ± 0.15 µM |  | accumulation of cells at G2/M phase compared to control (MCF-7 cells [2]): 5.5 folds; cells in G1 phase (MCF-7 cells [2]): 0.04%; cells in S phase (MCF-7 cells [2]): 15.41%; cells in G2/M phase (MCF-7 cells [2]; control 15.19%): 84.55%; IC50 (in vitro): 18.3 ± 1.3 µM; inhibition of tubulin polymerisation (tubulin; 3.0 µM): 21%; inhibition of tubulin polymerisation (tubulin; 6.0 µM): 41%; inhibition of tubulin polymerisation (tubulin; 12.5 µM): 60%; inhibition of tubulin polymerisation (tubulin; 25 µM): 82%; IC50 (tubulin; purified tubulin, absorbance 340 nm, read-out: IC50 tubulin polymerisation inhibition): 8.4 µM; Q1 cell fraction (MCF-7 cells [3]): 1.95%; Q4 cell fraction (MCF-7 cells [3]): 71.7%; late/secondary cellular apoptosis (Q2) (MCF-7 cells [3]; control 0.68%): 6.34%; early/primary apoptosis (Q3) (MCF-7 cells [3]; control 1.85%): 20.0%
8 | COc1ccc(/C=C/C(=O)c2c(OC)ccc3ccccc23)cc1Br [3g] | 7.11 ± 0.4 µM | 168 to 169 °C | 
9 | COc1cc(OC)c(/C=C/C(=O)c2c(O)ccc3ccccc23)c(OC)c1 [HMNC-74] |  |  | inhibition of clonogenicity (SW620 colon cancer cells): strongly inhibited
10 | N.N.[Cl][Pt][Cl] [Cisplatin, reference compound] |  |  | IC50 ([1]; 48 h): 15.2 ± 1.27 µM
11 | COc1ccc2ccccc2c1C(=O)/C=C/c1ccccc1 [3n] | 7.62 ± 0.36 µM | 142 to 144 °C | 
12 | COc1ccc2ccccc2c1C(=O)/C=C/c1cccs1 [3j] | > 10 µM | 149 to 150 °C | 
13 | COc1ccc2ccccc2c1C(=O)/C=C/c1ccccc1F [3m] | 6.66 ± 0.27 µM |  | 
14 | COc1cc(/C=C/C(=O)c2c(OC)ccc3ccccc23)cc(OC)c1OC [3p] | 7.23 ± 0.38 µM | 113 to 114 °C | 
15 | COc1ccc2ccccc2c1C(=O)/C=C/c1ccc(N(C)C)cc1 [3r] | 8.91 ± 0.52 µM | 147 to 148 °C | 
16 | COc1ccc(/C=C/C(=O)c2c(OC)ccc3ccccc23)cc1N [3t] | 2.75 ± 0.26 µM |  | 
17 | CCN(CC)c1ccc(/C=C/C(=O)c2c(OC)ccc3ccccc23)cc1 [3s] | 7.62 ± 0.3 µM | 142 to 144 °C | 
18 | COc1ccc(/C=C/C(=O)c2c(OC)ccc3ccccc23)c(OC)c1OC [3c] | > 10 µM | 107 to 108 °C | 
19 | COc1cc(OC)c(OC)cc1/C=C/C(=O)c1c(OC)ccc2ccccc12 [3l] | 7.68 ± 0.32 µM | 147 to 149 °C | 
20 | COc1ccc2ccccc2c1C(=O)/C=C/c1ccc(Cl)cc1 [3k] | 4.74 ± 0.19 µM | 142 to 143 °C | 
21 | COc1ccc(C(=O)/C=C/c2cccc3ccccc23)c(O)c1 [HymnPro, 2-hydroxy-4-methoxy-2′,3′-benzochalcone] |  |  | effect on xenografted tumour growth (xenografted tumour): suppressed xenografted tumour growth
22 | COc1ccccc1/C=C/C(=O)c1c(OC)ccc2ccccc12 [3q] | 7.67 ± 0.39 µM | 124 to 126 °C | 
23 | COc1ccc2ccccc2c1C(=O)/C=C/c1ccc2ccccc2c1 [3f] | 6.87 ± 0.26 µM | 107 to 109 °C | 
